Legend:
Test in all cases: relative viability (nuclei count vs DMSO), 5 days (fraction); higher = more cells survive
NCI-H1915 = system: NCI-H1915
How it was run: (§1)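 The day after seeding in 1536-well plates, lung cancer cell lines were treated by pin tool with a single drug, or with a fixed anchor-drug dose together with five library-drug doses (not always all listed) in √10 steps. After 5 days, a combined fix-and-stain solution (final 0.05% Triton X-100, 1% formaldehyde, 1 ug/ml Hoechst) was added. Nuclei counted on 4× images gave relative viability as treated counts over vehicle counts, reported as the median of duplicate plates.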

NCI-H647 = system: NCI-H647
How it was run: as §1

SK-LU-1 = system: SK-LU-1
How it was run: as §1

PC-3 [JPC-3] = system: PC-3 [JPC-3]
How it was run: as §1

NCI-H1755 = system: NCI-H1755
How it was run: as §1

HCC-15 = system: HCC-15
How it was run: as §1

NCI-H2228 = system: NCI-H2228
How it was run: as §1

NCI-H2347 = system: NCI-H2347
How it was run: as §1

SW 1573 = system: SW 1573
How it was run: as §1

LC-2-ad = system: LC-2-ad
How it was run: as §1

LXF-289 = system: LXF-289
How it was run: as §1

NCI-H2126 = system: NCI-H2126
How it was run: as §1

RERF-LC-KJ = system: RERF-LC-KJ
How it was run: as §1

NCI-H1734 = system: NCI-H1734
How it was run: as §1

NCI-H1792 = system: NCI-H1792
How it was run: as §1

NCI-H1975 = system: NCI-H1975
How it was run: as §1

HOP-62 = system: HOP-62
How it was run: as §1

A-427 = system: A-427
How it was run: as §1

HCC-78 = system: HCC-78
How it was run: as §1

CC(=O)O[C@@]12CO[C@@H]1C[C@H](O)[C@@]1(C)C(=O)[C@H](O)C3=C(C)[C@@H](OC(=O)[C@H](O)[C@@H](NC(=O)OC(C)(C)C)c4ccccc4)C[C@@](O)([C@@H](OC(=O)c4ccccc4)[C@H]21)C3(C)C [Docetaxel] + CC(C)C[C@H](NC(=O)[C@H](Cc1ccccc1)NC(=O)c1cnccn1)B(O)O [Bortezomib] (partner 0.002 µM)
relative viability (NCI-H1915; first compound 0.0002 µM): 0.905
relative viability (NCI-H1915; first compound 0.000632 µM): 0.95
relative viability (NCI-H1915; first compound 0.002 µM): 0.577
relative viability (NCI-H1915; first compound 0.006325 µM): 0.147
relative viability (NCI-H1915; first compound 0.02 µM): 0.116
relative viability (NCI-H647; first compound 0.0002 µM): 0.762
relative viability (NCI-H647; first compound 0.000632 µM): 0.23
relative viability (NCI-H647; first compound 0.002 µM): 0.113
relative viability (NCI-H647; first compound 0.006325 µM): 0.123
relative viability (NCI-H647; first compound 0.02 µM): 0.0811
relative viability (SK-LU-1; first compound 0.0002 µM): 0.951
relative viability (SK-LU-1; first compound 0.000632 µM): 0.392
relative viability (SK-LU-1; first compound 0.002 µM): 0.307
relative viability (SK-LU-1; first compound 0.006325 µM): 0.267
relative viability (SK-LU-1; first compound 0.02 µM): 0.208
relative viability (PC-3 [JPC-3]; first compound 0.0002 µM): 0.794
relative viability (PC-3 [JPC-3]; first compound 0.000632 µM): 0.959
relative viability (PC-3 [JPC-3]; first compound 0.002 µM): 0.735
relative viability (PC-3 [JPC-3]; first compound 0.006325 µM): 0.263
relative viability (PC-3 [JPC-3]; first compound 0.02 µM): 0.193
relative viability (NCI-H1755; first compound 0.0002 µM): 0.984
relative viability (NCI-H1755; first compound 0.000632 µM): 0.743
relative viability (NCI-H1755; first compound 0.002 µM): 0.45
relative viability (NCI-H1755; first compound 0.006325 µM): 0.368
relative viability (NCI-H1755; first compound 0.02 µM): 0.315
relative viability (HCC-15; first compound 0.0002 µM): 0.807
relative viability (HCC-15; first compound 0.000632 µM): 0.78
relative viability (HCC-15; first compound 0.002 µM): 0.231
relative viability (HCC-15; first compound 0.006325 µM): 0.216
relative viability (HCC-15; first compound 0.02 µM): 0.157
relative viability (NCI-H2228; first compound 0.0002 µM): 0.617
relative viability (NCI-H2228; first compound 0.000632 µM): 0.212
relative viability (NCI-H2228; first compound 0.002 µM): 0.149
relative viability (NCI-H2228; first compound 0.006325 µM): 0.243
relative viability (NCI-H2228; first compound 0.02 µM): 0.152
relative viability (NCI-H2347; first compound 0.0002 µM): 0.805
relative viability (NCI-H2347; first compound 0.000632 µM): 0.832
relative viability (NCI-H2347; first compound 0.002 µM): 0.326
relative viability (NCI-H2347; first compound 0.006325 µM): 0.497
relative viability (NCI-H2347; first compound 0.02 µM): 0.575
relative viability (SW 1573; first compound 0.0002 µM): 1.05
relative viability (SW 1573; first compound 0.000632 µM): 0.364
relative viability (SW 1573; first compound 0.002 µM): 0.265
relative viability (SW 1573; first compound 0.006325 µM): 0.195
relative viability (SW 1573; first compound 0.02 µM): 0.201
relative viability (LC-2-ad; first compound 0.0002 µM): 0.702
relative viability (LC-2-ad; first compound 0.002 µM): 0.125
relative viability (LC-2-ad; first compound 0.006325 µM): 0.116
relative viability (LC-2-ad; first compound 0.02 µM): 0.11
relative viability (LXF-289; first compound 0.0002 µM): 0.995
relative viability (LXF-289; first compound 0.000632 µM): 0.81
relative viability (LXF-289; first compound 0.002 µM): 0.594
relative viability (LXF-289; first compound 0.006325 µM): 0.133
relative viability (LXF-289; first compound 0.02 µM): 0.0991
relative viability (NCI-H2126; first compound 0.0002 µM): 1.12
relative viability (NCI-H2126; first compound 0.000632 µM): 1.09
relative viability (NCI-H2126; first compound 0.002 µM): 1.04
relative viability (NCI-H2126; first compound 0.006325 µM): 0.427
relative viability (NCI-H2126; first compound 0.02 µM): 0.288
relative viability (RERF-LC-KJ; first compound 0.0002 µM): 0.967
relative viability (RERF-LC-KJ; first compound 0.000632 µM): 0.841
relative viability (RERF-LC-KJ; first compound 0.002 µM): 0.499
relative viability (RERF-LC-KJ; first compound 0.006325 µM): 0.251
relative viability (RERF-LC-KJ; first compound 0.02 µM): 0.198
relative viability (NCI-H1734; first compound 0.0002 µM): 0.865
relative viability (NCI-H1734; first compound 0.000632 µM): 0.577
relative viability (NCI-H1734; first compound 0.002 µM): 0.323
relative viability (NCI-H1734; first compound 0.006325 µM): 0.325
relative viability (NCI-H1734; first compound 0.02 µM): 0.222
relative viability (NCI-H1792; first compound 0.0002 µM): 0.951
relative viability (NCI-H1792; first compound 0.000632 µM): 0.82
relative viability (NCI-H1792; first compound 0.002 µM): 0.6
relative viability (NCI-H1792; first compound 0.02 µM): 0.12
relative viability (NCI-H1975; first compound 0.0002 µM): 0.366
relative viability (NCI-H1975; first compound 0.000632 µM): 0.246
relative viability (NCI-H1975; first compound 0.002 µM): 0.166
relative viability (NCI-H1975; first compound 0.006325 µM): 0.15
relative viability (NCI-H1975; first compound 0.02 µM): 0.141
relative viability (HOP-62; first compound 0.0002 µM): 0.726
relative viability (HOP-62; first compound 0.000632 µM): 0.828
relative viability (HOP-62; first compound 0.02 µM): 0.128
relative viability (A-427; first compound 0.0002 µM): 0.949
relative viability (A-427; first compound 0.000632 µM): 0.964
relative viability (A-427; first compound 0.002 µM): 0.656
relative viability (A-427; first compound 0.006325 µM): 0.275
relative viability (A-427; first compound 0.02 µM): 0.141
relative viability (HCC-78; first compound 0.0002 µM): 0.581
relative viability (HCC-78; first compound 0.000632 µM): 0.524
relative viability (HCC-78; first compound 0.002 µM): 0.326
relative viability (HCC-78; first compound 0.006325 µM): 0.487
relative viability (HCC-78; first compound 0.02 µM): 0.27

Reference: the supplement of paper PMC10307832
